Among the test systems are SF-295 CNS; SR leukemia; NCI-H226 lung; OVCAR-3 ovarian; M14 melanoma; SNB-75 CNS; SK-MEL-2 melanoma; HL-60(TB) leukemia; CCRF-CEM leukemia; A549 NSCLC.
What all share (assay): DTP human tumour cell line panel, 48 h

Several values for one entry are separate records, joined by “and”; a condition that tells them apart may be missing. Equal entries are not always repeated.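 Protocol summary: plate cells (96-well), add compound at 5 concentrations, incubate 48 h, interpolate endpoints linearly. GI50 = concentration required for 50% inhibition of growth. The concentration for full growth arrest is given as TGI.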 A value given as a limit tells only on which side of the number the result lay.

Data on seven molecules can be found in PubChem BioAssay (NCI).

The term TGI denotes the concentration giving total growth inhibition. High values mean lower sensitivity of the cells, low ones greater sensitivity of the cells. Consider `CN(Cc1cc(Cl)c(Cl)cc1NC(=O)CN)[C@H]1CCCC[C@@H]1N1CCCC1`, for which the TGI was 36.6 µM in the assay on SF-295 CNS; 49.9 µM in the assay with SR leukemia; above 100 µM in the assay with NCI-H226 lung; above 100 µM in the assay on OVCAR-3 ovarian; 33.2 µM in the assay with M14 melanoma; above 100 µM in the assay on SNB-75 CNS. For the same molecule, the total growth inhibition concentration (TGI) with SK-MEL-2 melanoma was 31.9 µM; in the assay on HL-60(TB) leukemia it was above 100 µM; in the assay with CCRF-CEM leukemia, above 100 µM; with A549 NSCLC it was above 100 µM.
With `CN1CCN(C2=CC(=O)c3c(O)ccc(O)c3C2=O)CC1`, the concentration for total growth inhibition (TGI) in the assay with SF-295 CNS was 3.09 µM; with SR leukemia it was 8.1 µM; in the assay on NCI-H226 lung, 2.96 µM; in the assay on OVCAR-3 ovarian, 0.611 µM; in the assay on M14 melanoma it was 1.94 µM; in the assay with SNB-75 CNS, 2.97 µM. Also, the TGI came to 4.08 µM with SK-MEL-2 melanoma, 0.785 µM with HL-60(TB) leukemia, 3.03 µM with CCRF-CEM leukemia and 3.5 µM in the assay on A549 NSCLC.
In the case of `COc1cc(Br)c(CC2C3=C(CCN2C(=O)C2CCC2)CC(=O)CC3)cc1O` (stereo unspecified), the TGI with SF-295 CNS was above 100 µM; in the assay on SR leukemia, above 100 µM; with NCI-H226 lung, above 100 µM; with OVCAR-3 ovarian, 57 µM; in the assay on M14 melanoma, above 100 µM; with SNB-75 CNS it was 71.1 µM. Also, the concentration for total growth inhibition (TGI) with SK-MEL-2 melanoma is above 100 µM; in the assay on HL-60(TB) leukemia it was 36.9 µM; in the assay with CCRF-CEM leukemia, 87.6 µM; with A549 NSCLC, above 100 µM.
In the case of `Oc1cc(Br)cc2cc(Cl)cnc12`, the concentration for total growth inhibition (TGI) in the assay with SF-295 CNS is above 48 µM; in the assay on SR leukemia, above 30.2 µM; in the assay on NCI-H226 lung it was 64.4 µM; with OVCAR-3 ovarian, 11.2 µM; in the assay on M14 melanoma it was 10.4 µM; in the assay with SNB-75 CNS, above 90.3 µM. The TGI in the assay with SK-MEL-2 melanoma was 95.9 µM; with HL-60(TB) leukemia, 2.75 µM; in the assay with CCRF-CEM leukemia, 7.23 µM; in the assay with A549 NSCLC it was above 56.1 µM.
As a reminder, the GI50 is the concentration that inhibits growth by half. In the case of `C=C(C(=O)O[C@H]1C(=O)C2=C(C)CCC3C(=C)C(=O)O[C@@H]3C2[C@]1(C)O)C1CC[C@]2(C)CCCC(=C)[C@H]2C1` (stereo partly specified), the GI50 in the assay on SF-295 CNS was 0.0252 µM; with NCI-H226 lung, 6.81 µM; with OVCAR-3 ovarian, 3.39 µM; in the assay on M14 melanoma, 5.74 µM; in the assay with SNB-75 CNS, 2.42 µM; with A549 NSCLC it was 5.59 µM. The TGI is 9.37 µM and 29.5 µM in the assay on SF-295 CNS; above 100 µM in the assay with SR leukemia; 16 µM and 36.6 µM in the assay on NCI-H226 lung; 9.84 µM and 9.06 µM with OVCAR-3 ovarian; 12.3 µM and 20.3 µM in the assay on M14 melanoma; 8.05 µM and 6.71 µM in the assay with SNB-75 CNS. Besides, the TGI in the assay with SK-MEL-2 melanoma was 20.3 µM and 23.5 µM; with HL-60(TB) leukemia it was 4.35 µM; with CCRF-CEM leukemia, 0.106 µM; in the assay on A549 NSCLC it was 12.9 µM and 24.5 µM.
Consider `NC(N)=NCCCC(NC(=O)OCCCCn1ccc(N)nc1=O)C(=O)O` (stereo unspecified), for which the TGI in the assay with SF-295 CNS, with SR leukemia, in the assay with NCI-H226 lung, in the assay with OVCAR-3 ovarian, in the assay on M14 melanoma and in the assay on SNB-75 CNS was above 100 µM each time. Moreover, the TGI in the assay on SK-MEL-2 melanoma, in the assay with HL-60(TB) leukemia, with CCRF-CEM leukemia and in the assay on A549 NSCLC was above 100 µM in each case.
For the molecule `c1ccc(CN2CCN3CCN(CC2)CCN(Cc2ccccc2)CC3)cc1`, the concentration for total growth inhibition (TGI) is above 55.2 µM with SF-295 CNS; 16.5 µM in the assay on SR leukemia; 19.1 µM in the assay with NCI-H226 lung; 24.5 µM in the assay with OVCAR-3 ovarian; 19.6 µM in the assay with M14 melanoma; 18.2 µM in the assay with SNB-75 CNS. Moreover, the TGI was 8.06 µM with SK-MEL-2 melanoma, 8.32 µM in the assay on HL-60(TB) leukemia, 26.1 µM in the assay on CCRF-CEM leukemia and above 56.1 µM in the assay with A549 NSCLC.
